Laboratory results taken from ChEMBL document CHEMBL4004803, “Syntheses and antibacterial activity of soluble 9-bromo substituted indolizinoquinoline-5,12-dione derivatives” (Eur J Med Chem, 2017).

Assays:
Assay type in all cases: functional
Staphylococcus aureus [1] = assay: Antibacterial activity against methicillin-resistant Staphylococcus aureus 1026021 clinical isolate after 20 to 24 hrs by two-fold microdilution method
Staphylococcus aureus [2] = assay: Antibacterial activity against methicillin-resistant Staphylococcus aureus 1026211 clinical isolate after 20 to 24 hrs by two-fold microdilution method
Staphylococcus aureus [3] = assay: Antibacterial activity against methicillin-resistant Staphylococcus aureus 1103006 clinical isolate after 20 to 24 hrs by two-fold microdilution method
Staphylococcus aureus [4] = assay: Antibacterial activity against methicillin-resistant Staphylococcus aureus 202045 clinical isolate after 20 to 24 hrs by two-fold microdilution method
Staphylococcus aureus [5] = assay: Antibacterial activity against […] Staphylococcus aureus ATCC 25923 after 20 to 24 hrs by two-fold microdilution method
Staphylococcus aureus [6] = assay: Antibacterial activity against methicillin-resistant Staphylococcus aureus 11819 clinical isolate after 20 to 24 hrs by two-fold microdilution method
Staphylococcus aureus [7] = assay: Antibacterial activity against methicillin-resistant Staphylococcus aureus 1029025 clinical isolate after 20 to 24 hrs by two-fold microdilution method
Staphylococcus aureus [8] = assay: Antibacterial activity against methicillin-resistant Staphylococcus aureus 1107027 clinical isolate after 20 to 24 hrs by two-fold microdilution method
Staphylococcus aureus [9] = assay: Antibacterial activity against methicillin-resistant Staphylococcus aureus 829034 clinical isolate after 20 to 24 hrs by two-fold microdilution method
Staphylococcus aureus [10] = assay: Antibacterial activity against methicillin-resistant Staphylococcus aureus 122710-2 clinical isolate after 20 to 24 hrs by two-fold microdilution method
[11] = tested on: Staphylococcus haemolyticus; assay: Antibacterial activity against Staphylococcus haemolyticus CICC 10373 after 20 to 24 hrs by two-fold microdilution method
Staphylococcus aureus [12] = assay: Antibacterial activity against methicillin-resistant Staphylococcus aureus ATCC 43300 after 20 to 24 hrs by two-fold microdilution method
Staphylococcus aureus [13] = assay: Antibacterial activity against methicillin-resistant Staphylococcus aureus 519030 clinical isolate after 20 to 24 hrs by two-fold microdilution method
Staphylococcus aureus [14] = assay: Antibacterial activity against methicillin-resistant Staphylococcus aureus 1211026 clinical isolate after 20 to 24 hrs by two-fold microdilution method
Staphylococcus aureus [15] = assay: Antibacterial activity against methicillin-resistant Staphylococcus aureus 20534 clinical isolate after 20 to 24 hrs by two-fold microdilution method
Staphylococcus aureus [16] = assay: Antibacterial activity against methicillin-resistant Staphylococcus aureus 1111047-1 clinical isolate after 20 to 24 hrs by two-fold microdilution method
Staphylococcus aureus [17] = assay: Antibacterial activity against methicillin-resistant Staphylococcus aureus 503025 clinical isolate after 20 to 24 hrs by two-fold microdilution method
Staphylococcus aureus [18] = assay: Antibacterial activity against methicillin-resistant Staphylococcus aureus 1212221 clinical isolate after 20 to 24 hrs by two-fold microdilution method
Staphylococcus aureus [19] = assay: Antibacterial activity against methicillin-resistant Staphylococcus aureus 1214023 clinical isolate after 20 to 24 hrs by two-fold microdilution method
Staphylococcus aureus [20] = assay: Antibacterial activity against methicillin-resistant Staphylococcus aureus 518036 clinical isolate after 20 to 24 hrs by two-fold microdilution method
[21] = tested on: Staphylococcus epidermidis; assay: Antibacterial activity against Staphylococcus epidermidis ATCC 12228 after 20 to 24 hrs by two-fold microdilution method
Staphylococcus aureus [22] = assay: Antibacterial activity against methicillin-resistant Staphylococcus aureus 1128040 clinical isolate after 20 to 24 hrs by two-fold microdilution method
Staphylococcus aureus [23] = assay: Antibacterial activity against methicillin-resistant Staphylococcus aureus 125025 clinical isolate after 20 to 24 hrs by two-fold microdilution method
Staphylococcus aureus [24] = assay: Antibacterial activity against methicillin-resistant Staphylococcus aureus 614019 clinical isolate after 20 to 24 hrs by two-fold microdilution method
Staphylococcus aureus [25] = assay: Antibacterial activity against methicillin-resistant Staphylococcus aureus 305026 clinical isolate after 20 to 24 hrs by two-fold microdilution method
Staphylococcus aureus [26] = assay: Antibacterial activity against methicillin-resistant Staphylococcus aureus 10844 clinical isolate after 20 to 24 hrs by two-fold microdilution method
Staphylococcus aureus [27] = assay: Antibacterial activity against methicillin-resistant Staphylococcus aureus 1024004-2 clinical isolate after 20 to 24 hrs by two-fold microdilution method
Staphylococcus aureus [28] = assay: Antibacterial activity against methicillin-resistant Staphylococcus aureus GLH14 clinical isolate after 20 to 24 hrs by two-fold microdilution method
Staphylococcus aureus [29] = assay: Antibacterial activity against methicillin-resistant Staphylococcus aureus 1216052 clinical isolate after 20 to 24 hrs by two-fold microdilution method
Staphylococcus aureus [30] = assay: Antibacterial activity against methicillin-resistant Staphylococcus aureus 316038 clinical isolate after 20 to 24 hrs by two-fold microdilution method
Staphylococcus aureus [31] = assay: Antibacterial activity against methicillin-resistant Staphylococcus aureus 224001 clinical isolate after 20 to 24 hrs by two-fold microdilution method
Staphylococcus aureus [32] = assay: Antibacterial activity against methicillin-resistant Staphylococcus aureus 110834 clinical isolate after 20 to 24 hrs by two-fold microdilution method
Staphylococcus aureus [33] = assay: Antibacterial activity against methicillin-resistant Staphylococcus aureus 724244 clinical isolate after 20 to 24 hrs by two-fold microdilution method
Staphylococcus aureus [34] = assay: Antibacterial activity against methicillin-resistant Staphylococcus aureus 1012039 clinical isolate after 20 to 24 hrs by two-fold microdilution method
Staphylococcus aureus [35] = assay: Antibacterial activity against methicillin-resistant Staphylococcus aureus 212014 clinical isolate after 20 to 24 hrs by two-fold microdilution method
Staphylococcus aureus [36] = assay: Antibacterial activity against methicillin-resistant Staphylococcus aureus 122045 clinical isolate after 20 to 24 hrs by two-fold microdilution method
Staphylococcus aureus [37] = assay: Antibacterial activity against methicillin-resistant Staphylococcus aureus 531026 clinical isolate after 20 to 24 hrs by two-fold microdilution method
Staphylococcus aureus [38] = assay: Antibacterial activity against methicillin-resistant Staphylococcus aureus 1212057-1 clinical isolate after 20 to 24 hrs by two-fold microdilution method
Staphylococcus aureus [39] = assay: Antibacterial activity against methicillin-resistant Staphylococcus aureus GLH15 clinical isolate after 20 to 24 hrs by two-fold microdilution method
Staphylococcus aureus [40] = assay: Antibacterial activity against methicillin-resistant Staphylococcus aureus 112047 clinical isolate after 20 to 24 hrs by two-fold microdilution method
Escherichia coli = assay: Antibacterial activity against Escherichia coli ATCC 25922 after 20 to 24 hrs by two-fold microdilution method
Staphylococcus aureus [41] = assay: Antibacterial activity against methicillin-resistant Staphylococcus aureus 122820-2 clinical isolate after 20 to 24 hrs by two-fold microdilution method
Staphylococcus aureus [42] = assay: Antibacterial activity against methicillin-resistant Staphylococcus aureus 120827 clinical isolate after 20 to 24 hrs by two-fold microdilution method
Staphylococcus aureus [43] = assay: Antibacterial activity against methicillin-resistant Staphylococcus aureus 103054 clinical isolate after 20 to 24 hrs by two-fold microdilution method
Staphylococcus aureus [44] = assay: Antibacterial activity against methicillin-resistant Staphylococcus aureus 1025022 clinical isolate after 20 to 24 hrs by two-fold microdilution method
Staphylococcus aureus [45] = assay: Antibacterial activity against methicillin-resistant Staphylococcus aureus 908046 clinical isolate after 20 to 24 hrs by two-fold microdilution method
Staphylococcus aureus [46] = assay: Antibacterial activity against methicillin-resistant Staphylococcus aureus 123152 clinical isolate after 20 to 24 hrs by two-fold microdilution method

Measured: MIC

CN1CCN(CCCCCCOC(=O)c2c3c(n4cc(Br)ccc24)C(=O)c2ncccc2C3=O)CC1
0.25 µg/mL: Staphylococcus aureus [4] | Staphylococcus aureus [8] | Staphylococcus aureus [17] | Staphylococcus aureus [25] | Staphylococcus aureus [27] | Staphylococcus aureus [35] | Staphylococcus aureus [40] | Staphylococcus aureus [46]
16 µg/mL: Staphylococcus aureus [1] | Staphylococcus aureus [29]
0.5 µg/mL: Staphylococcus aureus [9] | Staphylococcus aureus [13] | Staphylococcus aureus [31]
1 µg/mL: Staphylococcus aureus [16] | Staphylococcus aureus [37]
0.016 µg/mL: Staphylococcus aureus [42]
≤ 0.0078 µg/mL: Staphylococcus aureus [2] | Staphylococcus aureus [5] | Staphylococcus aureus [12] | [21] | Staphylococcus aureus [23] | Staphylococcus aureus [26]
> 16 µg/mL: Staphylococcus aureus [3]
0.125 µg/mL: Staphylococcus aureus [14] | Staphylococcus aureus [15] | Staphylococcus aureus [20] | Staphylococcus aureus [24] | Staphylococcus aureus [32] | Staphylococcus aureus [34] | Staphylococcus aureus [39] | Staphylococcus aureus [44]
0.031 µg/mL: Staphylococcus aureus [33] | Staphylococcus aureus [38] | Staphylococcus aureus [43]
4 µg/mL: Escherichia coli
0.063 µg/mL: all other assays above
